# Values quoted from earlier work, collected in paper PMC9099121, “Population pharmacokinetic and exposure‐response analyses from ALTA‐1L: Model‐based analyses supporting the brigatinib dose in ALK‐positive NSCLC” (Clinical and Translational Science, 2022).
# Tested on: ALK-rearranged advanced NSCLC
# Design: method as in PMID 31020351
# Conditions: time-dependent exposure metric; 95% CI: 0.92–1.17; nonsignificant; cited from earlier work
compound,measurement,value
Cc1cc(Nc2ncc(Cl)c(Nc3ccccc3S(=O)(=O)C(C)C)n2)c(OC(C)C)cc1C1CCNCC1 [ceritinib],"HR, exposure versus risk of disease progression",1.04
